For assay [1], the system named is MC38-OVA tumor cells. In words: Murine MC38-OVA tumor model, in vivo CD8+ T cell depletion. To be noted: OVA immunized mice; 3 mM MgCl2 vs NaCl i.t.; anti-CD8a Ab 10 mg kg^−1 i.p. weekly. The protocol:
FIG. 1: Intratumoral magnesium administration improves adaptive anti-tumor immunity. (a) Schematic of experimental design. B1/6 mice, either immunized with OVA or left untreated, were inoculated subcutaneously with MC38-OVA tumor cells bilaterally on the flanks. From day 7, injection of 3 mM NaCl solution was applied in left flank tumor, whereas 3 mM MgCl2 solution was injected in contralateral tumor. This regimen was repeated every third day for a total of 8 cycles. (b) Tumor growth curves in non-immunized mice (n=20) (left panel), and immunized mice (n=19) (right panel). (c) Tumor growth curves in ±CD8 depleted mice (n=6-17). Results were pooled from 2 independent experiments, with n=6-12 mice each. (d) Absolute numbers of tumor-infiltrating CD8^+ T cells. (e) Number of tumor-infiltrating CD8^+ T cells positive for Ki67 (left panel), Granzyme B (middle panel) and CD25 (right panel). (f) Cell number of tumor-infiltrating CD8^+ T cells expressing PD-1 and Tim3. (g) Schematic of experimental design. B1/6 mice, immunized with OVA, were inoculated subcutaneously with MC38-OVA tumor cells unilaterally on the flank. From day 5, intratumoral injections of either 3 mM NaCl or 3 mM MgCl2 were initiated, and repeated every third day for 8 cycles. Mice were additionally injected with 200 μg i.p. of isotype control (IgG2a) or anti-PD-1 Ab on day 9, 12, and 15. […]

The test system of assay [2] is anti-PSMA CAR T cells co-cultured with PC3-PIP. As to the kind of experiment: Cytokine release assay of anti-PSMA CAR T cells (IFNγ ELISA). Format: cell-based, human. The note with it: 24 h; 0 mM vs 0.6 mM Mg^2+. The protocol: FIG. 3: Magnesium regulates LFA-1 mediated T cell activation and cytotoxicity as well BiTE- and CAR T-cell functionality. (a) Glycolytic switch of murine WT and LFA-1^−/− CTLs upon injection of anti-CD3/28 Ab in medium containing 1.2 mM Mg^2+ and 0 mM Mg^2+, presented as quantification of summarized data with n=4 mice. (b) Calcium flux in WT and LFA-1^−/− Jurkat T cells stimulated with anti-CD3 Ab in 1.2 mM and 0 mM Mg^2+ medium, respectively. Cells were loaded with Fluo4, and signal intensity as recorded by plate reader, was normalized to unstimulated baseline values. […] Quantified results of n=3 mice with 3 technical replicates each. […] The effector to target cell ratio was 3:1. Results are quantified of n=3 mice with 3 technical replicates each. (e) Representative CD11a (LFA-1) surface expression on human naïve and EM CD8 T cells, PHA T cell blasts and REP T cells, assessed by flow cytometry. […] The effector to target cell ratio was 1:1. Data is presented as quantified results of n=5 healthy donors (f, g, h), n=3 healthy donors with 2 technical replicates each or n=1 healthy donor with 4 technical replicates (j). […] Data is presented as quantified results of n=1 healthy donor with 4 technical replicates. […] (p) Abundance of IFNγ in cell culture supernatants corresponding to the conditions depicted in (o) at 24 hours was determined by ELISA (n=8, 3 independent experiments). […]

With `[Mg+2]` [Mg^2+, Magnesium], in assay [1], the “Tumor growth in ±CD8 depleted mice” value was “exerted its effect via CD8^+ T cells”. Besides, in assay [2], the IFNγ release entry is “reduced inflammatory IFNγ release”.

(Values after patent publication US20240010726A1, “LFA-1 SIGNALLING MEDIATOR FOR USE IN CANCER THERAPY” (Universität Basel, priority 2020, published 2024).)
